The results in this text go back to the NIST ThermoML archive (doi:10.1021/je800732f).

A short description of the series: cn = amount concentration of the nth substance listed, in mol/dm3. The following applies: 101 kPa, Liquid; for mass density: Vibrating tube method; for viscosity: Concentric cylinders viscometry, c1 = 0.025.

± gives the expanded uncertainty stated by the source.

Usually mass density stands for mass per unit of volume. For the molecule `[Cl-].[Na+]` [sodium chloride] + O, the mass density reads like this: (298.15 K, c1 = 0.2091) 1005.46 ± 0.056 kg/m3; (298.15 K, c1 = 0.5066) 1015.26 ± 0.065 kg/m3; (298.15 K, c1 = 1.013) 1034.19 ± 0.085 kg/m3; (298.15 K, c1 = 1.503) 1049.73 ± 0.11 kg/m3; (298.15 K, c1 = 1.974) 1074.45 ± 0.15 kg/m3; (298.15 K, c1 = 2.45) 1088.01 ± 0.19 kg/m3.
The viscosity is the internal friction of a fluid under shear. As for `NCC(=O)NCC(=O)O` [glycylglycine] + O, the viscosity (293.15 K) is recorded as 1.019 ± 0.0071 mPa·s, the viscosity (298.15 K) is on record as 0.9026 ± 0.0067 mPa·s and the viscosity (303.15 K) came to 0.8068 ± 0.0064 mPa·s.
